#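 In this assay, cells in 96-well plates receive the compound at five concentrations for 48 hours. Endpoints are linearly interpolated between the surrounding concentrations. The concentration for 50% growth inhibition is given as GI50. Definition used: TGI = concentration required for complete inhibition of growth.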
# Legend:
# Assay in all cases: inhibition of tumour cell growth, NCI panel, 48 h
# 786-0 renal = test system: 786-0 renal
# A498 renal = test system: A498 renal
# A549 NSCLC = test system: A549 NSCLC
# ACHN renal = test system: ACHN renal
# BT-549 breast = test system: BT-549 breast
# CAKI-1 renal = test system: CAKI-1 renal
# CCRF-CEM leukemia = test system: CCRF-CEM leukemia
# COLO 205 colon = test system: COLO 205 colon
# DU-145 prostate = test system: DU-145 prostate
# EKVX NSCLC = test system: EKVX NSCLC
# HCC-2998 colon = test system: HCC-2998 colon
# HCT-116 colon = test system: HCT-116 colon
# HCT-15 colon = test system: HCT-15 colon
# HL-60(TB) leukemia = test system: HL-60(TB) leukemia
# HOP-62 NSCLC = test system: HOP-62 NSCLC
# HOP-92 NSCLC = test system: HOP-92 NSCLC
# HS 578T breast = test system: HS 578T breast
# HT29 colon = test system: HT29 colon
# IGROV1 ovarian = test system: IGROV1 ovarian
# K-562 leukemia = test system: K-562 leukemia
# KM12 colon = test system: KM12 colon
# LOX IMVI melanoma = test system: LOX IMVI melanoma
# M14 melanoma = test system: M14 melanoma
# MCF7 breast = test system: MCF7 breast
# MDA-MB-231 breast = test system: MDA-MB-231 breast
# MDA-MB-435 = test system: MDA-MB-435
# MOLT-4 leukemia = test system: MOLT-4 leukemia
# NCI-H226 lung = test system: NCI-H226 lung
# NCI-H23 lung = test system: NCI-H23 lung
# NCI-H460 lung = test system: NCI-H460 lung
# NCI-H522 lung = test system: NCI-H522 lung
# NCI/ADR-RES ovarian = test system: NCI/ADR-RES ovarian
# OVCAR-3 ovarian = test system: OVCAR-3 ovarian
# OVCAR-4 ovarian = test system: OVCAR-4 ovarian
# OVCAR-5 ovarian = test system: OVCAR-5 ovarian
# OVCAR-8 ovarian = test system: OVCAR-8 ovarian
# PC-3 prostate = test system: PC-3 prostate
# RPMI-8226 leukemia = test system: RPMI-8226 leukemia
# SF-268 CNS = test system: SF-268 CNS
# SF-295 CNS = test system: SF-295 CNS
# SF-539 CNS = test system: SF-539 CNS
# SK-MEL-2 melanoma = test system: SK-MEL-2 melanoma
# SK-MEL-28 melanoma = test system: SK-MEL-28 melanoma
# SK-MEL-5 melanoma = test system: SK-MEL-5 melanoma
# SN12C renal = test system: SN12C renal
# SNB-19 CNS = test system: SNB-19 CNS
# SNB-75 CNS = test system: SNB-75 CNS
# SR leukemia = test system: SR leukemia
# SW-620 colon = test system: SW-620 colon
# T-47D breast = test system: T-47D breast
# TK-10 renal = test system: TK-10 renal
# U251 CNS = test system: U251 CNS
# UACC-257 melanoma = test system: UACC-257 melanoma
# UACC-62 melanoma = test system: UACC-62 melanoma
# UO-31 renal = test system: UO-31 renal
smiles,measurement,setting,value
COc1ccc2c(c1)CCC1C2CCC2(C)C3=CC(O)CCC3CC12 (stereo not given),GI50,786-0 renal,17.4 µM
same,TGI,786-0 renal,33.3 µM
same,GI50,A498 renal,16.7 µM
same,TGI,A498 renal,35.4 µM
same,GI50,A549 NSCLC,14.7 µM
same,TGI,A549 NSCLC,31.6 µM
same,GI50,ACHN renal,20.1 µM
same,TGI,ACHN renal,34.7 µM
same,GI50,BT-549 breast,18.8 µM
same,TGI,BT-549 breast,41.5 µM
same,GI50,CAKI-1 renal,21.9 µM
same,TGI,CAKI-1 renal,45.5 µM
same,GI50,CCRF-CEM leukemia,15.6 µM
same,TGI,CCRF-CEM leukemia,36.3 µM
same,GI50,COLO 205 colon,32.7 µM
same,TGI,COLO 205 colon,88.7 µM
same,GI50,DU-145 prostate,15.7 µM
same,TGI,DU-145 prostate,30.2 µM
same,GI50,EKVX NSCLC,16.9 µM
same,TGI,EKVX NSCLC,36.2 µM
same,GI50,HCC-2998 colon,14.3 µM
same,TGI,HCC-2998 colon,27.4 µM
same,GI50,HCT-116 colon,15.7 µM
same,TGI,HCT-116 colon,29.6 µM
same,GI50,HCT-15 colon,7.06 µM
same,TGI,HCT-15 colon,21.2 µM
same,GI50,HL-60(TB) leukemia,15.6 µM
same,TGI,HL-60(TB) leukemia,35.5 µM
same,GI50,HOP-62 NSCLC,19.6 µM
same,TGI,HOP-62 NSCLC,34.4 µM
same,GI50,HOP-92 NSCLC,22.6 µM
same,TGI,HOP-92 NSCLC,45.2 µM
same,GI50,HS 578T breast,23.4 µM
same,TGI,HS 578T breast,49.1 µM
same,GI50,HT29 colon,11 µM
same,TGI,HT29 colon,37.4 µM
same,GI50,IGROV1 ovarian,16.7 µM
same,TGI,IGROV1 ovarian,37.2 µM
same,GI50,K-562 leukemia,13.1 µM
same,TGI,K-562 leukemia,35.5 µM
same,GI50,KM12 colon,19.8 µM
same,TGI,KM12 colon,40.1 µM
same,GI50,LOX IMVI melanoma,15.4 µM
same,TGI,LOX IMVI melanoma,31.8 µM
same,GI50,M14 melanoma,15.7 µM
same,TGI,M14 melanoma,30.2 µM
same,GI50,MCF7 breast,24.8 µM
same,TGI,MCF7 breast,50.5 µM
same,GI50,MDA-MB-231 breast,17.6 µM
same,TGI,MDA-MB-231 breast,34.8 µM
same,GI50,MDA-MB-435,15.3 µM
same,TGI,MDA-MB-435,35.4 µM
same,GI50,MOLT-4 leukemia,18.3 µM
same,TGI,MOLT-4 leukemia,43.7 µM
same,GI50,NCI-H226 lung,18 µM
same,TGI,NCI-H226 lung,40.7 µM
same,GI50,NCI-H23 lung,15.8 µM
same,TGI,NCI-H23 lung,30.1 µM
same,GI50,NCI-H460 lung,19.4 µM
same,TGI,NCI-H460 lung,40.7 µM
same,GI50,NCI-H522 lung,14.3 µM
same,TGI,NCI-H522 lung,31.5 µM
same,GI50,NCI/ADR-RES ovarian,16 µM
same,TGI,NCI/ADR-RES ovarian,34.5 µM
same,GI50,OVCAR-3 ovarian,25.1 µM
same,TGI,OVCAR-3 ovarian,53.6 µM
same,GI50,OVCAR-4 ovarian,28 µM
same,TGI,OVCAR-4 ovarian,75.1 µM
same,GI50,OVCAR-5 ovarian,15.2 µM
same,TGI,OVCAR-5 ovarian,29.1 µM
same,GI50,OVCAR-8 ovarian,18 µM
same,TGI,OVCAR-8 ovarian,36.7 µM
same,GI50,PC-3 prostate,15.2 µM
same,TGI,PC-3 prostate,31.1 µM
same,GI50,RPMI-8226 leukemia,16.7 µM
same,TGI,RPMI-8226 leukemia,43.9 µM
same,GI50,SF-268 CNS,20.3 µM
same,TGI,SF-268 CNS,40.6 µM
same,GI50,SF-295 CNS,20.4 µM
same,TGI,SF-295 CNS,46.1 µM
same,GI50,SF-539 CNS,18.3 µM
same,TGI,SF-539 CNS,34.7 µM
same,GI50,SK-MEL-2 melanoma,18.9 µM
same,TGI,SK-MEL-2 melanoma,56.6 µM
same,GI50,SK-MEL-28 melanoma,21.8 µM
same,TGI,SK-MEL-28 melanoma,51.5 µM
same,GI50,SK-MEL-5 melanoma,11.7 µM
same,TGI,SK-MEL-5 melanoma,23.9 µM
same,GI50,SN12C renal,16.4 µM
same,TGI,SN12C renal,30.9 µM
same,GI50,SNB-19 CNS,21.5 µM
same,TGI,SNB-19 CNS,42.5 µM
same,GI50,SNB-75 CNS,43.5 µM
same,TGI,SNB-75 CNS,> 100 µM
same,GI50,SR leukemia,14.3 µM
same,TGI,SR leukemia,37.5 µM
same,GI50,SW-620 colon,14.4 µM
same,TGI,SW-620 colon,30.1 µM
same,GI50,T-47D breast,23 µM
same,TGI,T-47D breast,64.5 µM
same,GI50,TK-10 renal,21.2 µM
same,TGI,TK-10 renal,43.2 µM
same,GI50,U251 CNS,14 µM
same,TGI,U251 CNS,27.4 µM
same,GI50,UACC-257 melanoma,12.7 µM
same,TGI,UACC-257 melanoma,26.2 µM
same,GI50,UACC-62 melanoma,12.5 µM
same,TGI,UACC-62 melanoma,25 µM
same,GI50,UO-31 renal,19.8 µM
same,TGI,UO-31 renal,40.9 µM
